Measurements: ChEMBL document CHEMBL5625277, “Systematical mutational analysis of teriparatide on anti-osteoporosis activity by alanine scanning” (Bioorg Med Chem Lett, 2024)

Assay: Cytotoxicity in pre-osteoblasts (unknown origin) assessed as cell death upto 5 uM by CCK8 assay
Type: toxicity, cell-based
Settings: pre-osteoblast

With `CC[C@H](C)[C@H](NC(=O)[C@H](CCC(=O)O)NC(=O)[C@H](CO)NC(=O)[C@@H](NC(=O)[C@H](CO)NC(C)=O)C(C)C)C(=O)N[C@@H](CCC(N)=O)C(=O)N[C@@H](CC(C)C)C(=O)N[C@@H](CCSC)C(=O)N[C@@H](Cc1cnc[nH]1)C(=O)N[C@@H](CC(N)=O)C(=O)N[C@@H](CC(C)C)C(=O)NCC(=O)N[C@@H](CCCCN)C(=O)N[C@@H](Cc1cnc[nH]1)C(=O)N[C@@H](CC(C)C)C(=O)N[C@@H](CC(N)=O)C(=O)N[C@@H](CO)C(=O)N[C@@H](CCSC)C(=O)N[C@@H](CCC(=O)O)C(=O)N[C@@H](CCCNC(=N)N)C(=O)N[C@H](C(=O)N[C@@H](CCC(=O)O)C(=O)N[C@@H](Cc1c[nH]c2ccccc12)C(=O)N[C@@H](CC(C)C)C(=O)N[C@@H](CCCNC(=N)N)C(=O)N[C@@H](CCCCN)C(=O)N[C@@H](CCCCN)C(=O)N[C@@H](C)C(=O)N[C@@H](CCC(N)=O)C(=O)N[C@@H](CC(=O)O)C(=O)N[C@H](C(=O)N[C@@H](Cc1cnc[nH]1)C(=O)N[C@@H](CC(N)=O)C(=O)N[C@@H](Cc1ccccc1)C(N)=O)C(C)C)C(C)C` the Activity was “Non-Toxic”.
In the case of `CC[C@H](C)[C@H](NC(=O)[C@H](CCC(=O)O)NC(=O)[C@H](CO)NC(=O)[C@@H](NC(=O)[C@H](CO)NC(C)=O)C(C)C)C(=O)N[C@@H](CCC(N)=O)C(=O)N[C@@H](CC(C)C)C(=O)N[C@@H](CCSC)C(=O)N[C@@H](Cc1cnc[nH]1)C(=O)N[C@@H](CC(N)=O)C(=O)N[C@@H](CC(C)C)C(=O)NCC(=O)N[C@@H](CCCCN)C(=O)N[C@@H](Cc1cnc[nH]1)C(=O)N[C@@H](CC(C)C)C(=O)N[C@@H](CC(N)=O)C(=O)N[C@@H](CO)C(=O)N[C@@H](CCSC)C(=O)N[C@@H](CCC(=O)O)C(=O)N[C@@H](C)C(=O)N[C@H](C(=O)N[C@@H](CCC(=O)O)C(=O)N[C@@H](Cc1c[nH]c2ccccc12)C(=O)N[C@@H](CC(C)C)C(=O)N[C@@H](CCCNC(=N)N)C(=O)N[C@@H](CCCCN)C(=O)N[C@@H](CCCCN)C(=O)N[C@@H](CC(C)C)C(=O)N[C@@H](CCC(N)=O)C(=O)N[C@@H](CC(=O)O)C(=O)N[C@H](C(=O)N[C@@H](Cc1cnc[nH]1)C(=O)N[C@@H](CC(N)=O)C(=O)N[C@@H](Cc1ccccc1)C(N)=O)C(C)C)C(C)C`, the Activity is reported as “Non-Toxic”.
For `CC[C@H](C)[C@H](NC(=O)[C@H](CCC(=O)O)NC(=O)[C@H](CO)NC(=O)[C@@H](NC(=O)[C@H](CO)NC(C)=O)C(C)C)C(=O)N[C@@H](CCC(N)=O)C(=O)N[C@@H](CC(C)C)C(=O)N[C@@H](CCSC)C(=O)N[C@@H](Cc1cnc[nH]1)C(=O)N[C@@H](CC(N)=O)C(=O)N[C@@H](CC(C)C)C(=O)NCC(=O)N[C@@H](CCCCN)C(=O)N[C@@H](Cc1cnc[nH]1)C(=O)N[C@@H](CC(C)C)C(=O)N[C@@H](CC(N)=O)C(=O)N[C@@H](CO)C(=O)N[C@@H](CCSC)C(=O)N[C@@H](CCC(=O)O)C(=O)N[C@@H](CCCNC(=N)N)C(=O)N[C@H](C(=O)N[C@@H](CCC(=O)O)C(=O)N[C@@H](Cc1c[nH]c2ccccc12)C(=O)N[C@@H](CC(C)C)C(=O)N[C@@H](CCCNC(=N)N)C(=O)N[C@@H](C)C(=O)N[C@@H](CCCCN)C(=O)N[C@@H](CC(C)C)C(=O)N[C@@H](CCC(N)=O)C(=O)N[C@@H](CC(=O)O)C(=O)N[C@H](C(=O)N[C@@H](Cc1cnc[nH]1)C(=O)N[C@@H](CC(N)=O)C(=O)N[C@@H](Cc1ccccc1)C(N)=O)C(C)C)C(C)C`, the Activity was “Non-Toxic”.
In the case of `CC[C@H](C)[C@H](NC(=O)[C@H](CCC(=O)O)NC(=O)[C@H](CO)NC(=O)[C@H](C)NC(=O)[C@H](CO)NC(C)=O)C(=O)N[C@@H](CCC(N)=O)C(=O)N[C@@H](CC(C)C)C(=O)N[C@@H](CCSC)C(=O)N[C@@H](Cc1cnc[nH]1)C(=O)N[C@@H](CC(N)=O)C(=O)N[C@@H](CC(C)C)C(=O)NCC(=O)N[C@@H](CCCCN)C(=O)N[C@@H](Cc1cnc[nH]1)C(=O)N[C@@H](CC(C)C)C(=O)N[C@@H](CC(N)=O)C(=O)N[C@@H](CO)C(=O)N[C@@H](CCSC)C(=O)N[C@@H](CCC(=O)O)C(=O)N[C@@H](CCCNC(=N)N)C(=O)N[C@H](C(=O)N[C@@H](CCC(=O)O)C(=O)N[C@@H](Cc1c[nH]c2ccccc12)C(=O)N[C@@H](CC(C)C)C(=O)N[C@@H](CCCNC(=N)N)C(=O)N[C@@H](CCCCN)C(=O)N[C@@H](CCCCN)C(=O)N[C@@H](CC(C)C)C(=O)N[C@@H](CCC(N)=O)C(=O)N[C@@H](CC(=O)O)C(=O)N[C@H](C(=O)N[C@@H](Cc1cnc[nH]1)C(=O)N[C@@H](CC(N)=O)C(=O)N[C@@H](Cc1ccccc1)C(N)=O)C(C)C)C(C)C`, the Activity is reported as “Non-Toxic”.
In the case of `CC[C@H](C)[C@H](NC(=O)[C@H](CCC(=O)O)NC(=O)[C@H](CO)NC(=O)[C@@H](NC(=O)[C@H](CO)NC(C)=O)C(C)C)C(=O)N[C@@H](C)C(=O)N[C@@H](CC(C)C)C(=O)N[C@@H](CCSC)C(=O)N[C@@H](Cc1cnc[nH]1)C(=O)N[C@@H](CC(N)=O)C(=O)N[C@@H](CC(C)C)C(=O)NCC(=O)N[C@@H](CCCCN)C(=O)N[C@@H](Cc1cnc[nH]1)C(=O)N[C@@H](CC(C)C)C(=O)N[C@@H](CC(N)=O)C(=O)N[C@@H](CO)C(=O)N[C@@H](CCSC)C(=O)N[C@@H](CCC(=O)O)C(=O)N[C@@H](CCCNC(=N)N)C(=O)N[C@H](C(=O)N[C@@H](CCC(=O)O)C(=O)N[C@@H](Cc1c[nH]c2ccccc12)C(=O)N[C@@H](CC(C)C)C(=O)N[C@@H](CCCNC(=N)N)C(=O)N[C@@H](CCCCN)C(=O)N[C@@H](CCCCN)C(=O)N[C@@H](CC(C)C)C(=O)N[C@@H](CCC(N)=O)C(=O)N[C@@H](CC(=O)O)C(=O)N[C@H](C(=O)N[C@@H](Cc1cnc[nH]1)C(=O)N[C@@H](CC(N)=O)C(=O)N[C@@H](Cc1ccccc1)C(N)=O)C(C)C)C(C)C`, the Activity is reported as “Non-Toxic”.
With `CC[C@H](C)[C@H](NC(=O)[C@H](CCC(=O)O)NC(=O)[C@H](C)NC(=O)[C@@H](NC(=O)[C@H](CO)NC(C)=O)C(C)C)C(=O)N[C@@H](CCC(N)=O)C(=O)N[C@@H](CC(C)C)C(=O)N[C@@H](CCSC)C(=O)N[C@@H](Cc1cnc[nH]1)C(=O)N[C@@H](CC(N)=O)C(=O)N[C@@H](CC(C)C)C(=O)NCC(=O)N[C@@H](CCCCN)C(=O)N[C@@H](Cc1cnc[nH]1)C(=O)N[C@@H](CC(C)C)C(=O)N[C@@H](CC(N)=O)C(=O)N[C@@H](CO)C(=O)N[C@@H](CCSC)C(=O)N[C@@H](CCC(=O)O)C(=O)N[C@@H](CCCNC(=N)N)C(=O)N[C@H](C(=O)N[C@@H](CCC(=O)O)C(=O)N[C@@H](Cc1c[nH]c2ccccc12)C(=O)N[C@@H](CC(C)C)C(=O)N[C@@H](CCCNC(=N)N)C(=O)N[C@@H](CCCCN)C(=O)N[C@@H](CCCCN)C(=O)N[C@@H](CC(C)C)C(=O)N[C@@H](CCC(N)=O)C(=O)N[C@@H](CC(=O)O)C(=O)N[C@H](C(=O)N[C@@H](Cc1cnc[nH]1)C(=O)N[C@@H](CC(N)=O)C(=O)N[C@@H](Cc1ccccc1)C(N)=O)C(C)C)C(C)C` the Activity was “Non-Toxic”.
For `CC[C@H](C)[C@H](NC(=O)[C@H](CCC(=O)O)NC(=O)[C@H](CO)NC(=O)[C@@H](NC(=O)[C@H](CO)NC(C)=O)C(C)C)C(=O)N[C@@H](CCC(N)=O)C(=O)N[C@@H](CC(C)C)C(=O)N[C@@H](CCSC)C(=O)N[C@@H](Cc1cnc[nH]1)C(=O)N[C@@H](CC(N)=O)C(=O)N[C@@H](CC(C)C)C(=O)N[C@@H](C)C(=O)N[C@@H](CCCCN)C(=O)N[C@@H](Cc1cnc[nH]1)C(=O)N[C@@H](CC(C)C)C(=O)N[C@@H](CC(N)=O)C(=O)N[C@@H](CO)C(=O)N[C@@H](CCSC)C(=O)N[C@@H](CCC(=O)O)C(=O)N[C@@H](CCCNC(=N)N)C(=O)N[C@H](C(=O)N[C@@H](CCC(=O)O)C(=O)N[C@@H](Cc1c[nH]c2ccccc12)C(=O)N[C@@H](CC(C)C)C(=O)N[C@@H](CCCNC(=N)N)C(=O)N[C@@H](CCCCN)C(=O)N[C@@H](CCCCN)C(=O)N[C@@H](CC(C)C)C(=O)N[C@@H](CCC(N)=O)C(=O)N[C@@H](CC(=O)O)C(=O)N[C@H](C(=O)N[C@@H](Cc1cnc[nH]1)C(=O)N[C@@H](CC(N)=O)C(=O)N[C@@H](Cc1ccccc1)C(N)=O)C(C)C)C(C)C`, the Activity was “Non-Toxic”.
With `CC[C@H](C)[C@H](NC(=O)[C@H](CCC(=O)O)NC(=O)[C@H](CO)NC(=O)[C@@H](NC(=O)[C@H](CO)NC(C)=O)C(C)C)C(=O)N[C@@H](CCC(N)=O)C(=O)N[C@@H](CC(C)C)C(=O)N[C@@H](CCSC)C(=O)N[C@@H](Cc1cnc[nH]1)C(=O)N[C@@H](CC(N)=O)C(=O)N[C@@H](CC(C)C)C(=O)NCC(=O)N[C@@H](CCCCN)C(=O)N[C@@H](Cc1cnc[nH]1)C(=O)N[C@@H](CC(C)C)C(=O)N[C@@H](CC(N)=O)C(=O)N[C@@H](CO)C(=O)N[C@@H](CCSC)C(=O)N[C@@H](CCC(=O)O)C(=O)N[C@@H](CCCNC(=N)N)C(=O)N[C@H](C(=O)N[C@@H](CCC(=O)O)C(=O)N[C@@H](Cc1c[nH]c2ccccc12)C(=O)N[C@@H](CC(C)C)C(=O)N[C@@H](CCCNC(=N)N)C(=O)N[C@@H](CCCCN)C(=O)N[C@@H](CCCCN)C(=O)N[C@@H](CC(C)C)C(=O)N[C@@H](CCC(N)=O)C(=O)N[C@@H](CC(=O)O)C(=O)N[C@H](C(=O)N[C@@H](Cc1cnc[nH]1)C(=O)N[C@@H](C)C(=O)N[C@@H](Cc1ccccc1)C(N)=O)C(C)C)C(C)C` the Activity was “Non-Toxic”.
With `CC[C@H](C)[C@H](NC(=O)[C@H](C)NC(=O)[C@H](CO)NC(=O)[C@@H](NC(=O)[C@H](CO)NC(C)=O)C(C)C)C(=O)N[C@@H](CCC(N)=O)C(=O)N[C@@H](CC(C)C)C(=O)N[C@@H](CCSC)C(=O)N[C@@H](Cc1cnc[nH]1)C(=O)N[C@@H](CC(N)=O)C(=O)N[C@@H](CC(C)C)C(=O)NCC(=O)N[C@@H](CCCCN)C(=O)N[C@@H](Cc1cnc[nH]1)C(=O)N[C@@H](CC(C)C)C(=O)N[C@@H](CC(N)=O)C(=O)N[C@@H](CO)C(=O)N[C@@H](CCSC)C(=O)N[C@@H](CCC(=O)O)C(=O)N[C@@H](CCCNC(=N)N)C(=O)N[C@H](C(=O)N[C@@H](CCC(=O)O)C(=O)N[C@@H](Cc1c[nH]c2ccccc12)C(=O)N[C@@H](CC(C)C)C(=O)N[C@@H](CCCNC(=N)N)C(=O)N[C@@H](CCCCN)C(=O)N[C@@H](CCCCN)C(=O)N[C@@H](CC(C)C)C(=O)N[C@@H](CCC(N)=O)C(=O)N[C@@H](CC(=O)O)C(=O)N[C@H](C(=O)N[C@@H](Cc1cnc[nH]1)C(=O)N[C@@H](CC(N)=O)C(=O)N[C@@H](Cc1ccccc1)C(N)=O)C(C)C)C(C)C` the Activity was “Non-Toxic”.
